Measured values: patent US11247983B2, “Compounds and methods for inhibiting JAK” (Dizal (Jiangsu) Pharmaceutical Co., Ltd., priority 2015, dated 2022)

Legend:
[1] = test system: NCI-H1650 tumor xenografts; experiment: In vivo efficacy in the H1650 xenograft model (Example 71); parameters: species or system mice; details: oral, 21 days; gefitinib 6.25 mg/kg QD, Example 32 25 or 50 mg/kg BID; combination compared to single agent gefitinib
Description: (§1) Tumor volume was measured twice a week.

[2] = test system: pSTAT3 (Y705) in PC-9 tumors; experiment: pSTAT3 (Y705) levels in PC-9 tumor lysates (Western blot, Example 70); type: in vivo, mice; details: Example 32 12.5 and 50 mg/kg BID with gefitinib, last day of treatment, 2, 8 and 24 hours after the AM dose
[3] = test system: LG1049 non-small cell lung cancer PDX tumor xenografts; experiment: In vivo efficacy in the LG1049 xenograft PDX model (Example 72)
Description: SUMMARY: LG1049 non-small cell lung cancer PDX tumor xenografts were grown subcutaneously in female NSG mice. […] Tumor volume was measured twice a week.
(§2) MATERIALS AND METHODS: LG1049 tumor fragments were implanted subcutaneously in female NSG mice (JAX Stock No. 005557).

[4] = test system: NCI-H1975 tumor xenografts; experiment: In vivo efficacy in the H1975 xenograft model (Example 69); parameters: species or system mice; details: oral, 18 days; osimertinib 2.5 mg/kg QD, Example 32 12.5, 25 or 50 mg/kg BID; combination compared to osimertinib alone, single agent relative to vehicle
Description: as §1

[5] = test system: pSTAT3 (Y705) in NCI-H1650 tumors; experiment: pSTAT3 levels in NCI-H1650 tumor lysates (Western blot, Example 71); type: in vivo, mice; details: measured after one day of treatment
Description: Twenty-three days after cell implantation, the mice were randomized into 6 groups (9 mice/group, average tumor volume 257 mm^3, range 205-303 mm^3). […] Drug levels in plasma were measured by LC/MS, using a Linear Ion Trap Quadrupole LC/MS/MS Mass Spectrometer (QTRAP 5500 model 1024945-BB, AB Sciex Instruments), with separation on a Waters Xbridge C18 column.

[6] = test system: pSTAT3 (Y705) in NCI-H1975 tumors; experiment: pSTAT3 (Y705) levels in NCI-H1975 tumor lysates (pharmacodynamics, Example 69); type: in vivo, mice; details: Example 32 12.5, 25, 50 mg/kg BID, after one day of treatment, samples 2, 8 and 24 hours after the AM dose
Description: MATERIALS AND METHODS: NCI-H1975 cells (a human NSCLC cell line with L858R and T790M mutations in the EGFR gene) tumor cells were implanted subcutaneously in female NCr nude mice (Taconic Laboratories), 3×10^6 cells/mouse. […] Drug levels in plasma were measured by LC/MS, using a Linear Ion Trap Quadrupole LC/MS/MS Mass Spectrometer (QTRAP 5500 model 1024945-BB, AB Sciex Instruments), with separation on a Waters Xbridge C18 column.

[7] = test system: NCI-H1975 tumor xenografts; experiment: In vivo efficacy of intermittent Example 32 dosing schedules in the H1975 xenograft model (Example 73); parameters: species or system mice; details: oral, 19 to 29 days; osimertinib 2.5 mg/kg QD, Example 32 12.5, 25 or 50 mg/kg BID on continuous or intermittent schedules; combination compared to osimertinib alone, single agent relative to vehicle
Description: as §1
MATERIALS AND METHODS: NCI-H1975 cells (a human NSCLC cell line with L858R and T790M mutations in the EGFR gene), were implanted subcutaneously in female NCr nude mice (Taconic Laboratories), 3×10^6 cells/mouse.

[8] = test system: pSTAT3 (Y705) in LG1049 tumors; experiment: pSTAT3 levels in LG1049 tumor lysates (Western blot, Example 72); type: in vivo, mice; details: Example 32 25 mg/kg BID, 5 days of treatment, 4H after the final dose
From the text: MATERIALS AND METHODS: LG1049 tumor fragments were implanted subcutaneously in female NSG mice (JAX Stock No. 005557). Once tumor volumes reached ˜125-275 mm^3, mice were randomized into 5 groups (10 mice/group, average tumor volume 189 mm^3, range 138-253 mm^3).

[9] = test system: pEGFR (pY1173) in LG1049 tumors; experiment: pEGFR levels in LG1049 tumor lysates (Western blot, Example 72); type: in vivo, mice; details: osimertinib 25 mg/kg QD, 5 days of treatment, 4H after the final dose
From the text: as §2

Structure (SMILES)	antitumor activity (tumor volume, FIG. 25) [1]	duration of pSTAT3 knockdown in tumors (FIG. 24) [2]	body weight (FIG. 29) ([3]; mouse, in vivo)	antitumor activity / tumor regression (tumor volume, FIG. 28) ([3]; oral, osimertinib 25 mg/kg QD 28 days, Example 32 25 mg/kg BID (18 days as single agent), combination compared to osimertinib alone, single agent relative to vehicle)	antitumor activity (tumor volume, FIG. 19) [4]	knockdown of pSTAT3 in tumors (FIG. 27) [5]	pSTAT3 knockdown in tumors (FIG. 21) [6]	antitumor activity (tumor volume, FIG. 31A-31E) [7]	knockdown of pSTAT3 in tumors (FIG. 30) [8]	knockdown of pEGFR in tumors (FIG. 30) [9]	body weight (FIG. 29) ([3]; LG1049 tumor bearing NSG mice, weight loss attributed to tumor growth)	tumor regrowth when treatment was stopped after 28 days ([3]; after 28 days of dosing)
COc1nn(C)cc1Nc1nccc(-c2c[nH]c3c(NC(=O)[C@@H](C)N4CCN(C)CC4)cccc23)n1 [Example 32, (2R)-N-(3-{2-[(3-methoxy-1-methyl-1H-pyrazol-4-yl)amino]pyrimidin-4-yl}-1H-indol-7-yl)-2-(4-methylpiperazin-1-yl)propanamide]	only modest antitumor activity	dose dependent increase in the duration of pSTAT3 knockdown	significant weight loss	no significant activity relative to vehicle control treatment	only weak antitumor activity	Knockdown of pSTAT3 was observed	dose dependent increase in pSTAT3 knockdown	no significant activity relative to vehicle control treatment	robust knockdown	–	–	–
C=CC(=O)Nc1cc(Nc2nccc(-c3cn(C)c4ccccc34)n2)c(OC)cc1N(C)CCN(C)C [osimertinib, reference compound]	–	–	–	–	–	–	–	–	–	robust knockdown	lack of significant weight loss	tumors rapidly regrew
